# Results from patent publication US8680012B2, “4-phenyl-pyrane-3,5-diones,4-phenyl-thiopyrane-3,6-diones and cyclohexanetriones as novel herbicides” (Syngenta Crop Protection LLC, priority 2006, dated 2014).
# Test system: Solanum nigrum (SOLNI)
# Test: Example B pre-emergence herbicidal activity, glasshouse pot test
# Assay type: in vivo
# Settings: 312 h, rate 1000 g/ha, evaluated after 13 days, read-out: Pre-emergence activity SOLNI (100=total damage to plant; 0=no damage to plant)
# Summary of the method: (§1)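 Damage rating, 0–100, at 13 d after application. Spray solution: a.i. in acetone/water (50:50), 0.5% Tween 20. Applied 1 d after sowing or at 8 d growth; pots held at 24/16 °C, 14 h light, 65% humidity.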
row,Compound,pest or weed control at 1000 g/ha
1,CCc1ccc(-c2ccc(Cl)cc2)cc1C1=C(OC(=O)C2CC2)C(C)(C)OC(C)(C)C1=O [Compound D-10],0%
2,CCc1ccc(-c2ccc(Cl)cc2)cc1C1=C(OC(=O)C(C)CC)C(C)(C)OC(C)(C)C1=O [Compound D-11],0%
3,CCc1ccc(-c2ccc(Cl)cc2)cc1C1=C(OC(=O)COC)C(C)(C)OC(C)(C)C1=O [Compound D-12],0%

# Test system: Amaranthus retroflexus (AMARE)
# Test: as above
# Assay type: in vivo
# Settings: 312 h, rate 1000 g/ha, evaluated after 13 days, read-out: Pre-emergence activity AMARE (100=total damage to plant; 0=no damage to plant)
# Summary of the method: as §1
row,Compound,pest or weed control at 1000 g/ha
1,CCc1ccc(-c2ccc(Cl)cc2)cc1C1=C(OC(=O)C2CC2)C(C)(C)OC(C)(C)C1=O [Compound D-10],0%
2,CCc1ccc(-c2ccc(Cl)cc2)cc1C1=C(OC(=O)C(C)CC)C(C)(C)OC(C)(C)C1=O [Compound D-11],0%
3,CCc1ccc(-c2ccc(Cl)cc2)cc1C1=C(OC(=O)COC)C(C)(C)OC(C)(C)C1=O [Compound D-12],0%

# Test system: Alopecurus myosuroides (ALOMY)
# Test: as above
# Assay type: in vivo
# Settings: 312 h, rate 1000 g/ha, evaluated after 13 days, read-out: Pre-emergence activity ALOMY (100=total damage to plant; 0=no damage to plant)
# Summary of the method: as §1
row,Compound,pest or weed control at 1000 g/ha
1,CCc1ccc(-c2ccc(Cl)cc2)cc1C1=C(OC(=O)C2CC2)C(C)(C)OC(C)(C)C1=O [Compound D-10],50%
2,CCc1ccc(-c2ccc(Cl)cc2)cc1C1=C(OC(=O)C(C)CC)C(C)(C)OC(C)(C)C1=O [Compound D-11],20%
3,CCc1ccc(-c2ccc(Cl)cc2)cc1C1=C(OC(=O)COC)C(C)(C)OC(C)(C)C1=O [Compound D-12],90%

# Test system: Avena fatua (AVEFA)
# Test: as above
# Assay type: in vivo
# Settings: 312 h, rate 1000 g/ha, evaluated after 13 days, read-out: Pre-emergence activity AVEFA (100=total damage to plant; 0=no damage to plant)
# Summary of the method: as §1
row,Compound,pest or weed control at 1000 g/ha
1,CCc1ccc(-c2ccc(Cl)cc2)cc1C1=C(OC(=O)C2CC2)C(C)(C)OC(C)(C)C1=O [Compound D-10],0%
2,CCc1ccc(-c2ccc(Cl)cc2)cc1C1=C(OC(=O)C(C)CC)C(C)(C)OC(C)(C)C1=O [Compound D-11],0%
3,CCc1ccc(-c2ccc(Cl)cc2)cc1C1=C(OC(=O)COC)C(C)(C)OC(C)(C)C1=O [Compound D-12],60%

# Test system: Setaria faberi (SETFA)
# Test: as above
# Assay type: in vivo
# Settings: 312 h, rate 1000 g/ha, evaluated after 13 days, read-out: Pre-emergence activity SETFA (100=total damage to plant; 0=no damage to plant)
# Summary of the method: as §1
row,Compound,pest or weed control at 1000 g/ha
1,CCc1ccc(-c2ccc(Cl)cc2)cc1C1=C(OC(=O)C2CC2)C(C)(C)OC(C)(C)C1=O [Compound D-10],100%
2,CCc1ccc(-c2ccc(Cl)cc2)cc1C1=C(OC(=O)C(C)CC)C(C)(C)OC(C)(C)C1=O [Compound D-11],90%
3,CCc1ccc(-c2ccc(Cl)cc2)cc1C1=C(OC(=O)COC)C(C)(C)OC(C)(C)C1=O [Compound D-12],100%

# Test system: Echinochloa crus-galli (ECHCG)
# Test: as above
# Assay type: in vivo
# Settings: 312 h, rate 1000 g/ha, evaluated after 13 days, read-out: Pre-emergence activity ECHCG (100=total damage to plant; 0=no damage to plant)
# Summary of the method: as §1
row,Compound,pest or weed control at 1000 g/ha
1,CCc1ccc(-c2ccc(Cl)cc2)cc1C1=C(OC(=O)C2CC2)C(C)(C)OC(C)(C)C1=O [Compound D-10],100%
2,CCc1ccc(-c2ccc(Cl)cc2)cc1C1=C(OC(=O)C(C)CC)C(C)(C)OC(C)(C)C1=O [Compound D-11],20%
3,CCc1ccc(-c2ccc(Cl)cc2)cc1C1=C(OC(=O)COC)C(C)(C)OC(C)(C)C1=O [Compound D-12],100%

# Test system: Solanum nigrum (SOLNI)
# Test: Example B post-emergence herbicidal activity, glasshouse pot test
# Assay type: in vivo
# Settings: 312 h, rate 1000 g/ha, evaluated after 13 days, read-out: Post-emergence activity SOLNI (100=total damage to plant; 0=no damage to plant)
# Summary of the method: as §1
row,Compound,pest or weed control at 1000 g/ha
1,CCc1ccc(-c2ccc(Cl)cc2)cc1C1=C(OC(=O)C2CC2)C(C)(C)OC(C)(C)C1=O [Compound D-10],0%
2,CCc1ccc(-c2ccc(Cl)cc2)cc1C1=C(OC(=O)C(C)CC)C(C)(C)OC(C)(C)C1=O [Compound D-11],0%
3,CCc1ccc(-c2ccc(Cl)cc2)cc1C1=C(OC(=O)COC)C(C)(C)OC(C)(C)C1=O [Compound D-12],0%

# Test system: Amaranthus retroflexus (AMARE)
# Test: as above
# Assay type: in vivo
# Settings: 312 h, rate 1000 g/ha, evaluated after 13 days, read-out: Post-emergence activity AMARE (100=total damage to plant; 0=no damage to plant)
# Summary of the method: as §1
row,Compound,pest or weed control at 1000 g/ha
1,CCc1ccc(-c2ccc(Cl)cc2)cc1C1=C(OC(=O)C2CC2)C(C)(C)OC(C)(C)C1=O [Compound D-10],20%
2,CCc1ccc(-c2ccc(Cl)cc2)cc1C1=C(OC(=O)C(C)CC)C(C)(C)OC(C)(C)C1=O [Compound D-11],0%
3,CCc1ccc(-c2ccc(Cl)cc2)cc1C1=C(OC(=O)COC)C(C)(C)OC(C)(C)C1=O [Compound D-12],0%

# Test system: Alopecurus myosuroides (ALOMY)
# Test: as above
# Assay type: in vivo
# Settings: 312 h, rate 1000 g/ha, evaluated after 13 days, read-out: Post-emergence activity ALOMY (100=total damage to plant; 0=no damage to plant)
# Summary of the method: as §1
row,Compound,pest or weed control at 1000 g/ha
1,CCc1ccc(-c2ccc(Cl)cc2)cc1C1=C(OC(=O)C2CC2)C(C)(C)OC(C)(C)C1=O [Compound D-10],90%
2,CCc1ccc(-c2ccc(Cl)cc2)cc1C1=C(OC(=O)C(C)CC)C(C)(C)OC(C)(C)C1=O [Compound D-11],40%
3,CCc1ccc(-c2ccc(Cl)cc2)cc1C1=C(OC(=O)COC)C(C)(C)OC(C)(C)C1=O [Compound D-12],90%

# Test system: Avena fatua (AVEFA)
# Test: as above
# Assay type: in vivo
# Settings: 312 h, rate 1000 g/ha, evaluated after 13 days, read-out: Post-emergence activity AVEFA (100=total damage to plant; 0=no damage to plant)
# Summary of the method: as §1
row,Compound,pest or weed control at 1000 g/ha
1,CCc1ccc(-c2ccc(Cl)cc2)cc1C1=C(OC(=O)C2CC2)C(C)(C)OC(C)(C)C1=O [Compound D-10],20%
2,CCc1ccc(-c2ccc(Cl)cc2)cc1C1=C(OC(=O)C(C)CC)C(C)(C)OC(C)(C)C1=O [Compound D-11],0%
3,CCc1ccc(-c2ccc(Cl)cc2)cc1C1=C(OC(=O)COC)C(C)(C)OC(C)(C)C1=O [Compound D-12],90%

# Test system: Setaria faberi (SETFA)
# Test: as above
# Assay type: in vivo
# Settings: 312 h, rate 1000 g/ha, evaluated after 13 days, read-out: Post-emergence activity SETFA (100=total damage to plant; 0=no damage to plant)
# Summary of the method: as §1
row,Compound,pest or weed control at 1000 g/ha
1,CCc1ccc(-c2ccc(Cl)cc2)cc1C1=C(OC(=O)C2CC2)C(C)(C)OC(C)(C)C1=O [Compound D-10],100%
2,CCc1ccc(-c2ccc(Cl)cc2)cc1C1=C(OC(=O)C(C)CC)C(C)(C)OC(C)(C)C1=O [Compound D-11],90%
3,CCc1ccc(-c2ccc(Cl)cc2)cc1C1=C(OC(=O)COC)C(C)(C)OC(C)(C)C1=O [Compound D-12],100%

# Test system: Echinochloa crus-galli (ECHCG)
# Test: as above
# Assay type: in vivo
# Settings: 312 h, rate 1000 g/ha, evaluated after 13 days, read-out: Post-emergence activity ECHCG (100=total damage to plant; 0=no damage to plant)
# Summary of the method: as §1
row,Compound,pest or weed control at 1000 g/ha
1,CCc1ccc(-c2ccc(Cl)cc2)cc1C1=C(OC(=O)C2CC2)C(C)(C)OC(C)(C)C1=O [Compound D-10],100%
2,CCc1ccc(-c2ccc(Cl)cc2)cc1C1=C(OC(=O)C(C)CC)C(C)(C)OC(C)(C)C1=O [Compound D-11],100%
3,CCc1ccc(-c2ccc(Cl)cc2)cc1C1=C(OC(=O)COC)C(C)(C)OC(C)(C)C1=O [Compound D-12],100%
